# Measurements reported in patent publication US9487551B2, “Small molecule compounds that control mammal-pathogenic nematodes” (California Institute of Technology, priority 2011, dated 2016).
# Entries after “also recorded” stand apart in the source; their conditions may differ. Marks after values point to notes of the source that are not given here.
# What was measured:
# [1] = tested on: C. elegans; assay: Spot attraction assay; format: in vivo
# Protocol: The spot attraction assays were conducted according to a previously reported method (Pungaliya et al., PNAS 106:7708-13 (2009); Srinivasan et al., Nature 454:1115-18 (2008), which are hereby incorporated by reference in their entirety). For both C. elegans hermaphrodites and males, 50-60 worms were harvested daily at the fourth larval stage (L4) and stored segregatedly by sex at 20° C. overnight, to be used as young adults the following day. For the competition experiments, two conditions were used: 120 nM ascr#3 and 10 nM icas#3 (Condition 1), or 12 μM ascr#3 and 1 μM icas#3 (Condition 2) in water containing 10% ethanol. Aliquots were stored at −20° C. in 20 μL tubes. 10% ethanol in water was used as control.
# Attraction assays with hbas#3 were conducted as previously reported (Srinivasan et al., Nature 454:1115-18 (2008); Pungaliya et al., Proc. Natl. Acad. Sci. U.S.A. 106:7708-13 (2009), which are hereby incorporated by reference in their entirety). For the attraction assays, 50-60 hermaphrodite worms were harvested daily at the early fourth larval stage (L4) and stored at 20° C. overnight to be used as young adults the following day. Hbas#3 was dissolved in water containing 10% ethanol. Aliquots were stored at −20° C. in 20 μL tubes. 10% ethanol in water was used as control.
# [2] = tested on: C. elegans; assay: Ascaroside function (Table 12); format: in vivo, Caenorhabditis elegans; set-up: key to Attract Females/Herm. / Promote Dauer Formation / Attract Males: A very strong result of affecting nematode behavior is designated in the table as “strong.”; conditions: listed = has this function
# Protocol: (§1) Various ascarosides and ascaroside blends were administered to various nematodes described below (Table 12). […] A very strong result of affecting nematode behavior is designated in the table as “strong.”
# [3] = tested on: Panagrellus redivivus; assay: Ascaroside function (Table 12); format: in vivo; conditions: listed = has this function
# Protocol: as §1
# [4] = tested on: C. elegans; assay: Quadrant chemotaxis assay; format: in vivo; conditions: FIGS. 48A-B; wild-type hermaphrodites
# Protocol: Chemotaxis to both non-indole and indole ascarosides was assessed on 10 cm four-quadrant petri plates (Wicks et al., Dev. Biol. 221:295-307 (2000), which is hereby incorporated by reference in its entirety). Each quadrant was separated from adjacent ones by plastic spacers (FIG. 1B). Pairs of opposite quadrants were filled with nematode growth medium (NGM) agar containing either indole ascarosides or non-indole ascarosides at different concentrations. Animals were washed gently in a S-basal buffer, placed in the center of a four-quadrant plate with ascarosides in alternating quadrants, and scored after 15 minutes and 30 minutes. A chemotaxis index was calculated as: (the number of animals on ascaroside quadrants minus the number of animals on buffer quadrants)/(total number of animals).
# Chemotaxis to hbas#3 was assessed on 10 cm four-quadrant petri plates (Wicks et al., Dev. Biol. 221:295-307 (2000), which is hereby incorporated by reference in its entirety). Each quadrant was separated from adjacent ones by plastic spacers. Pairs of opposite quadrants were filled with nematode growth medium (NGM) agar containing different concentrations of hbas#3. Animals were washed gently in an S-basal buffer and placed in the center of a four-quadrant plate with ascarosides in alternating quadrants, and scored after 15 minutes and 30 minutes. A chemotaxis index was calculated as: (the number of animals on ascaroside quadrants minus the number of animals on buffer quadrants)/(total number of animals).
# [5] = tested on: Meloidogyne javanica, M. floridensis, M. incognita, M. hapla; assay: Ascaroside function (Table 12); format: in vivo, Meloidogyne spp.; conditions: for predicted function in Meloidogyne species: alone, in concert, and/or in concert with ascr#9 or other ascarosides; for Dispersal (of dauer larvae, infectious juveniles) / Repel Females/Herm.: entries with asterisk (predicted)
# Protocol: (§2) Ascarosides ascr#10, ascr#16, ascr#18, ascr#20, and ascr#22 were detected in certain species of Meloidogyne plant parasitic nematodes (FIG. 83) and identified using high-resolution mass spectrometry (FIGS. 84-88).
# as §1
# [6] = tested on: Heterorhabditis bacteriophora, H. zealandica, H. floridensis; assay: Ascaroside function (Table 12); format: in vivo, Heterorhabditis spp.; conditions: for predicted function in Heterorhabditis: alone, in concert, and/or in concert with ascr#9 or other ascarosides; for Dispersal (of dauer larvae, infectious juveniles) / Repel Females/Herm.: entries with asterisk (predicted)
# Protocol: as §2, §1
# [7] = tested on: Several of the tested nematode species; assay: Retention assay; format: in vivo; conditions: 1 nM, 1 μM and 1 mM tested
# Protocol: OP50 E. coli was grown on a standard 5 cm agar plate (made with standard Nematode Growth Medium). The bacterial lawn was 16 mm in diameter and was grown overnight at 20° C. before being used in trials. Two 4 mm spots (0.6 μL) were placed on opposite sides of the bacterial lawn (using a transparent template to guide spot placement), and several minutes elapsed for the liquid to settle in before placing nematodes down on the assay. Recording began immediately upon worm placement. 0.6 μL of the control was placed on one side of the lawn, and 0.6 μL of the experimental cue was placed on the other side of the lawn, changing the location of the cue throughout trials between left/right and top/bottom to avoid bias.
# Nematodes were isolated by gender at the L4 stage the day before being used in trials as developed adults. Worms were evenly divided and placed at two points equidistant from the foci of the scoring region. Trials were recorded for 20 minutes, and frames were collected for analysis at 1 frame per second. Results were averaged from at least three different trials. For every nematode species in this study, a different total number of worms (using water in both scoring regions) was tested to determine the minimum number of worms necessary for consistent unbiased results over a 20 minute trial. The total number of worms used in the multiple species assays depended on that species' optimal parameters. 10 worms were used for P. redivivus males and females, 20 worms were used for C. elegans males and O. dolichuridae males, and 14 worms were used for S. glaseri males. The Automated Software was used to compare worm occupancy in each scoring region over time, and the Chemotaxis Index (Bargmann et al., Cell 74:515-27 (1993), which is hereby incorporated by reference in its entirety) was adapted to score preference or avoidance to each ascaroside.
# A video camera attached to the microscope produced a digital video stream, which was then analyzed. The ratio of the time the average worm spent in each region of interest was calculated for every trial. For ease of implementation, all worms in a single experiment were assumed to be roughly the same size. Thus worm pixels were counted instead of whole worms, allowing fractions of a worm in the region of interest to be taken into account. It also eliminated the need for a shape-based worm identification algorithm, and allowed each frame to be analyzed independently. A band-pass filter was applied to each frame to eliminate the effect of uneven lighting and also accentuate the worms against the background. The worm was then identified after thresholding the filtered image. Throughout each experiment, the locations and sizes of the regions of interest were known. Through the filtering described above, it is known which pixels are occupied by worms and which ones are not. Thus, the ratio of worm-pixels to all pixels inside the region of interest can be calculated to produce the worm-occupancy ratio. This calculation was done for every frame, giving a plot output of worm-occupancy ratio vs. time for each region.
# [8] = tested on: S. glaseri; assay: Ascaroside function (Table 12); format: in vivo; conditions: listed = has this function
# Protocol: as §1
# [9] = tested on: C. elegans; conditions: cited from earlier work
# [10] = tested on: C. elegans males; assay: Attraction assay (long-range, point source); format: in vivo; conditions: 10 cm plate
# Protocol: 10 cm standard chemotaxis plates were prepared (Bargmann et al., Cell 74:515-27 (1993), which is hereby incorporated by reference in its entirety) and stored at 4° C. until the day before use. Standard 1 cm-diameter copper pipes were sectioned into 1 cm-tall segments to use for the holding chambers. The females/hermaphrodites were isolated overnight, washed 3 times in M9 buffer, and then allowed to wander on a plate pre-conditioned with 50 uL of 1000× treptomycin for 2 hours to kill any bacteria that might produce a false positive attractant. The nematodes were then washed 3 times, and the supernatant from the last wash was placed in a copper chamber, as the control, 1 cm from the border of the 10 cm plate. The nematodes were suspended in M9 within the copper chamber, 1 cm from the border opposite the control chamber. After 6 hours, they were subsequently removed and replaced with 3 μL of 1M sodium azide. 100 C. elegans adult males were isolated overnight, washed several times in ddH2O, and placed at the center of the agar plate. After several hours, males paralyzed within 2 cm of each region were scored. The Chemotaxis Index (Bargmann et al., Cell 74:515-27 (1993), which is hereby incorporated by reference in its entirety) was then used to score male chemotaxis to either point source.
# [11] = tested on: C. elegans; conditions: in vivo; cited from earlier work
# [12] = tested on: S. feltiae; assay: Ascaroside function (Table 12); format: in vivo, Steinernema feltiae; conditions: listed = has this function
# Protocol: as §1
compound,measurement,setting,value
C[C@H](CCCCC(=O)O)O[C@@H]1O[C@@H](C)[C@H](OC(=O)c2c[nH]c3ccccc23)C[C@H]1O [icas#1],attraction in spot attraction assay,"[1]; 1 pmol (high concentrations), N2 hermaphrodites and him-5 males",attractive to both C. elegans sexes; also recorded: attracted both males and hermaphrodites
same,Attract Females/Herm.,[2],icas#1 ([strong])
same,Attract Males,[2],icas#1 ([strong])
"CC1O[C@@H](OCCCCCCCCC(=O)O)C(O)C[C@H]1O (stereo partly drawn) [oscr#10, 9-(3′R,5′R-Dihydroxy-6′S-methyl-(2H)-tetrahydropyran-2′-yloxy)nonanoic acid]",Repel Males,[3],oscr#10
"C[C@H](CCCC/C=C/C(=O)O)O[C@@H]1O[C@@H](C)[C@H](OC(=O)c2ccc(O)cc2)C[C@H]1O [hbas#3, (8R)-(3′R-Hydroxy-5′R-(4-hydroxybenzoyloxy)-6′S-methyl-(2H)-tetrahydropyran-2′-yloxy)non-(2E)-enoic acid]",attraction of wild-type (N2) hermaphrodites,[1]; dose dependent,attracted
same,concentration as low as which strongly attracted C. elegans,[4],10 femtomolar
same,Attract Males,[2],([strong])
"C[C@@H]1O[C@@H](OCCCCC(=O)O)[C@H](O)C[C@H]1O [oscr#9, 5-(3′R,5′R-Dihydroxy-6′S-methyl-(2H)-tetrahydropyran-2′-yloxy)pentanoic acid]",Attract Males,[3],oscr#9
CC1OC(O[C@H](C)CCCCCCCC(=O)O)C(O)CC1O (some centres unmarked) [ascr#16],predicted function in Meloidogyne species,[5],act as dispersants and repellants
same,"Dispersal (of dauer larvae, infectious juveniles)",[5],ascr#16*
same,Repel Females/Herm.,[5],ascr#16*
C[C@H](CCCCCCCCCCC(=O)O)O[C@@H]1O[C@@H](C)[C@H](O)C[C@H]1O [ascr#22],predicted function in Meloidogyne species,[5],act as dispersants and repellants
same,"Dispersal (of dauer larvae, infectious juveniles)",[5],ascr#22*
same,Repel Females/Herm.,[5],ascr#22*
same,predicted function in Heterorhabditis,[6],act as dispersants and repellants
same,"Dispersal (of dauer larvae, infectious juveniles)",[6],ascr#22*
same,Repel Females/Herm.,[6],ascr#22*
CC(=O)CC[C@@H](C)O[C@@H]1O[C@@H](C)[C@H](O)C[C@H]1O[C@@H]1O[C@H](CO)[C@@H](O)[C@H](O)[C@H]1O [ascr#4],Promote Dauer Formation,[2],ascr#4
CC1OC(O[C@H](C)CCCCCCCCC(=O)O)C(O)CC1O (some centres unmarked) [ascr#18],predicted function in Meloidogyne species,[5],act as dispersants and repellants
same,"Dispersal (of dauer larvae, infectious juveniles)",[5],ascr#18*
same,Repel Females/Herm.,[5],ascr#18*
same,predicted function in Heterorhabditis,[6],act as dispersants and repellants
same,"Dispersal (of dauer larvae, infectious juveniles)",[6],ascr#18*
same,Repel Females/Herm.,[6],ascr#18*
CC1OC(O[C@H](C)CCCCCCCCCC(=O)O)C(O)CC1O (some centres unmarked) [ascr#20],predicted function in Meloidogyne species,[5],act as dispersants and repellants
same,"Dispersal (of dauer larvae, infectious juveniles)",[5],ascr#20*
same,Repel Females/Herm.,[5],ascr#20*
C[C@H](CC/C=C/C(=O)O)O[C@@H]1O[C@@H](C)[C@H](O)C[C@H]1O [ascr#7],preference for ascaroside-conditioned areas,[7],preferred areas conditioned
same,Attract Males,[8],ascr#7
same,Attract Males,[3],ascr#7
same,Attract Males,[2],ascr#7
CC1O[C@@H](O[C@H](C)CCCC/C=C/C(=O)O)[C@@H](O)C[C@H]1O (some centres unmarked) [ascr#3],preference for ascaroside-conditioned areas,[7],preferred areas conditioned
same,Attract Males,[8],ascr#3
same,Attract Males,[3],ascr#3
same,most active amount for attraction,[9]; from 1 μM concentration,~1 pmol
same,response of social and solitary hermaphrodites,[9]; high dauer-inducing concentrations,strongly deter both social and solitary hermaphrodites
same,response of males and hermaphrodites,[9]; in vivo,strongly attracts males but repels hermaphrodites
same,amount as low as which elicited C. elegans male attraction,[10],5 femtomol
same,male attraction from a distance,[10],chemotax towards
same,dauer-inducing activity,[11],individually promote dauer entry
same,"Dispersal (of dauer larvae, infectious juveniles)",[12],ascr#3
same,Attract Males,[2],ascr#3
same,Promote Dauer Formation,[2],ascr#3 ([strong])
same,Repel Females/Herm.,[2],ascr#3
